Three compounds from patent US20060223779A1, “Method of screening for inhibitors of human Fatty Acid-CoA Ligase 4” (priority 2000, published 2006) can be followed below.

Assay [1] deals with 293 cells. Kind of assay: Lipid peroxidation assay (MDA and 4-HNE) in 293 cells. In kind it is cell-based, human. The procedure:
FIG. 6: Cells exposed to AA show increased lipid peroxidation; apoptosis is blocked by antioxidants and Bcl-2. (A) The level of lipid oxidation products. The 293 cells were treated with AA at the indicated concentrations for 48 hr. The data presented are from one experiment that is representative of two independent experiments. […] Antioxidants were applied to 293 cells at the indicated concentration for 1 hr, and then AA (200 μM) was added. Apoptosis was determined after 44 hr and is shown relative to the level in control cells. […] Cells were transfected with the empty vector (Ctl) or with a cDNA encoding Bcl-2 and then were exposed to AA (300 μM). The level of apoptosis was determined after 44 hr. The values shown indicate the apoptosis level relative to control cells, and represent the means of triplicate determinations (P<0.05). The expression of Bcl-2 was detected by Western blotting. (D) The level of Bcl-2 expression in the stable cells. The stably transfected cells were induced, or not, with ponasterone for 24 or 48 hr. Cell lysates were blotted with an antibody to Bcl-2. Normalization was performed with an anti-β-actin antibody.
Lipid peroxidation assay. Cells were plated and treated with AA for 48 hr. […] The cellular malondialdehyde (MDA) and 4-hydroxynonenal (4-HNE) levels were determined with the lipid peroxidation assay kit (Calbiochem).

Assay [2] deals with COX-2 stable 293 cells. Kind of assay: Apoptosis in stably transfected 293 cells with inducible COX-2 over-expression. In kind it is cell-based, human. The procedure:
(A) Conditional expression level of FACL4 and COX-2 in stably transfected lines. Cells were treated with (+) or without (−) ponasterone (1 μg/ml) for 48 hr, and Western blotting was carried out with anti-FACL4 and anti-COX-2 antibodies, respectively. The loading was normalized with an anti-β actin antibody (ICN Biomedicals). […] The 293 cells stably transfected with an empty control vector (Ctl), FACL4 cDNA, COX-2 cDNA, and both FACL4 and COX-2 cDNAs were uninduced (−Pon) or induced for over-expression (+Pon) as in A. AA (300 μM) was added after 24 hr of induction and apoptosis was determined 44 hr later. […] The plot is a comparison of the relative apoptosis levels among the stable lines and is representative of three independent experiments. The values shown are the averages of triplicate determinations. […] Cells were uninduced (−Pon) or induced for over-expression as above. […] COX inhibitors were administered 6 hr later as indicated. AA (300 μM) was then added after 2 hr and apoptosis was determined 44 hr later. The plot is prepared as in B, and is a representative result from three independent experiments, in which triplicates were performed. Wt=wild-type, Mut=mutant, Met=50 μM 6-methoxy-2-naphthyl acetic acid, Indo=10 μM indomethacin. […] The COX-2, FACL4/COX-2 stable and control cells carrying an empty vector were induced for 48 hr, washed and incubated with 20 μM AA at 37° C. for 30 min. The amount of PGE2 synthesized was determined by ELISA. […] (E) The levels of free AA in the stable lines. The [^3H]
(§1) Cell Death Detection ELISA. Cells were plated on 96 well-plates at 1×10^4 cells per well. AA was applied and apoptotic death was determined after 44 hr with the Cell Death Detection ELISA (Boehringer Mannheim).
Stable cell lines. The ecdysone inducible system (Invitrogen) was used to construct stable lines over-expressing human FACL4, COX-2, COX-2 mutant, and both FACL4 and COX-2. […] The cDNAs were cloned into pIND(SP1) (Neomycin^r). The cDNA constructs, or the empty vector pIND(SP1) were transfected into EcR293 cells, which were then selected in 400 μg/ml geneticin and 400 μg/ml zeocin. […] The double stable line was generated by stably transfecting the COX-2 stable cells with another pIND(SP1)-FACL4 cDNA construct, in which the FACL4 cDNA was cloned into a pIND(SP1) (hygromycin^r) vector. The cells were selected in 400 μg/ml geneticin, 400 μg/ml zeocin, and 50 μg/ml hygromycin B. The positive colonies were screened as described above.

The subject of assay [3] is caspase 3. As to the kind of experiment: Caspase 3-like activity in AA-treated cells. In kind it is cell-based. Particulars: not shown.
For assay [4], the system named is 293 cells. As to the kind of experiment: Cell survival (crystal violet staining) in 293 cells. In kind it is cell-based, human. Particulars: 293 cells, increasing exogenous AA concentration, 44 hr. The procedure:
(§2) FIG. 3: Arachidonic acid induces apoptosis via activation of caspase 3. (A) Determination of cell survival. AA was added to 293 cells at the indicated concentrations and the surviving fraction of cells was determined after 44 hr. The values shown are relative to the viability of cells that were not exposed to AA. (B) Increased apoptosis in cells exposed to AA. Cells were treated with AA (300 μM) or palmitic acid (300 μM) under the same conditions as in A, and then apoptosis was detected with an ELISA. The mean values from triplicate determinations are shown. […] The 293 cells were treated with AA (300 μM; +AA) or vehicle alone (−AA) for 44 hr. The nuclei were stained with DAPI, and DNA strand breaks in individual cells were detected with a fluorescent TUNEL assay. The upper panels are the same field of cells (−AA) photographed under UV (left panels) and FITC filters (right panels). The lower panels illustrate apoptotic cells (+AA). The magnification is 80×. (D) Immunostaining with an anti-active caspase 3 antibody. Upper panels, control cells (−AA); lower panels, cells exposed to 300 μM AA. Left panels, DAPI staining; right panels, immunostaining with an antibody selective for active caspase 3. The magnification is 100×. […] The 293 cells were preincubated with caspase inhibitors (including DMQD, a caspase 3 inhibitor, and YVAD, a caspase 1 and 4 inhibitor (Peptide Institute)) for 1 hr at the indicated concentrations, AA (300 μM) was added, and apoptosis was determined 44 hr later. The values represent the means from triplicate determinations.
(§3) Cell survival. Cell viability was determined with the crystal violet staining (See M. Hayakawa et al., 268 J. Biol. Chem. 11290-11295 (1993).

Assay [5] relates to 293 cells. As to the kind of experiment: Apoptosis by Cell Death Detection ELISA in 293 cells. In kind it is cell-based, human. The following applies: 44 hr. The procedure:
as §2, §1

Assay [6] deals with FACL4/COX-2 cells. Kind of assay: [3H] arachidonic acid release after A23187 (pulse-chase). In kind it is cell-based, human. Particulars: A23187 5 μM. The procedure:
(§4) FIG. 5: Enzymatic “sinks” for free arachidonic acid protect against TNFα_ and calcium ionophore_mediated cell killing. (A) Determination of cell survival. The cells were induced (+Pon) or not (−Pon) for 24 hr, and TNFα (1 ng/ml) or the calcium ionophore A23187 (5 μM) was added, and the cells were incubated for another 72 hr. The surviving fraction was determined and is plotted relative to that of the same line without TNFα or A23187 treatment. Ctl denotes control cells harboring an empty vector, while FACL4/COX-2 denotes the double stable line. (B) Measurement of the free AA. The FACL4/COX-2 cells were prelabeled with [^3H] AA, induced, and stimulated with A23187 (5 μM), and [^3H] AA release was measured at the indicated time intervals. The values are from one experiment that is representative of four independent determinations.
Arachidonic acid release. Cells were plated on 6 well-plates precoated with poly-L-lysine at 8×10^5 cells per well. They were then prelabeled with [^3H] AA (0.4 μCi/ml medium) (91.8 Ci/mmol, 100 μCi/ml, NEN) for 24 hr. After a wash, serum-free DMEM supplemented with 1% BSA (fatty acid free) was added. […] The AA release stimulated by A23187 was calculated by subtracting the released AA by unstimulated cells, from that by A23187-stimulated counterparts.

For assay [7], the system named is FACL4/COX-2 double stable cells. As to the kind of experiment: Cell survival of FACL4/COX-2 double stable cells after TNFα or A23187. In kind it is cell-based, human. The following applies: TNFα 1 ng/ml or A23187 5 μM, 72 hr, n=3. The procedure:
as §4
Stable cell lines. The ecdysone inducible system (Invitrogen) was used to construct stable lines over-expressing human FACL4, COX-2, COX-2 mutant, and both FACL4 and COX-2. […] The cDNAs were cloned into pIND(SP1) (Neomycin^r). The cDNA constructs, or the empty vector pIND(SP1) were transfected into EcR293 cells, which were then selected in 400 μg/ml geneticin and 400 μg/ml zeocin. A number of single colonies were screened for over-expression of FACL4, COX-2 wild type, and COX-2 mutant by immunoblotting against anti-FACL4 (See Y. Cao et al., 467 FEBS Lett. 263-267 (2000)), and anti-COX-2 antibodies (a gift from Dr. Jacques Maclouf), and by measurement of the CoA ligase activity for FACL4 (See D. B. Wilson et al., 257 J. Biol. Chem. 3510-3515 (1992)), or the PGE2 secretion for COX-2 wild type (ELISA assay, Assay Design, Inc.). The double stable line was generated by stably transfecting the COX-2 stable cells with another pIND(SP1)-FACL4 cDNA construct, in which the FACL4 cDNA was cloned into a pIND(SP1) (hygromycin^r) vector. The cells were selected in 400 μg/ml geneticin, 400 μg/ml zeocin, and 50 μg/ml hygromycin B. The positive colonies were screened as described above.
as §3

On to `CCCCC/C=C\C/C=C\C/C=C\C/C=C\CCCC(=O)O` [AA, Arachidonic acid], for which the “formation of lipid peroxidation products” value in assay [1] (293 cells exposed to AA, 48 hr) was “enhanced formation of malondialdehyde and 4-hydroxy-2(E)-nonenal”. Besides, in assay [2] (200 μM), the “fold-increase in apoptosis after fatty acid treatment” value came to 8.5 fold. Moreover, the “reduction of fatty acid-induced apoptosis by inducing COX-2 over-expression” value in assay [2] (COX-2 over-expression induced, n=3) is 36.7%. Moreover, in assay [3], the “maximal increase in caspase 3-like activity compared to control cells” value is listed as around 4.5 fold and the “time of peak caspase 3-like activity” value turned out to be 17 h. Also, the “cell survival, % of the control” value in assay [4] came out at 23%. Moreover, the “apoptosis (mono- and oligo-nucleosomes) over the control” value in assay [5] (293 cells, 300 μM) was found to be 18 fold.

With `CNc1ccc2oc(C[C@H]3O[C@@]4(CC[C@H]3C)O[C@H]([C@H](C)C(=O)c3ccc[nH]3)[C@H](C)C[C@H]4C)nc2c1C(=O)O` [A23187], the “AA release to the medium in response to A23187, control cells” value in assay [6] (control cells) is recorded as “released a large amount of AA”. The “AA release to the medium in response to A23187, over-expression of FACL4 and COX-2” value in assay [6] (induced FACL4/COX-2 cells) is on record as “completely abolished”. Besides, in assay [7] (FACL4/COX-2 double stable cells induced with ponasterone), the “surviving fraction, induced cells” value was determined as 67.8%. Moreover, the “surviving fraction, uninduced cells” value in assay [7] (FACL4/COX-2 double stable cells without induction) is on record as 37.8%.

With z-DMQD-fmk, in assay [1] (AA-exposed cells, not shown), the “effect on generation of peroxidized lipids” value is given as “did not block the generation of peroxidized lipids”. In addition, the “blocking of AA-induced apoptosis by caspase inhibitor” value in assay [5] (293 cells preincubated 1 hr with inhibitor, AA 300 μM) is on record as “significantly blocked apoptosis”.
